Biological target: T1, BRM (Homo sapiens, UniProt P51531)
T1 construct: Western Blot Screen of BRM Degradation in SW1573 Cells; endogenous in cells; host or cells: SW1573 cells
Test: BRM degradation (Dmax and DC50) in SW1573 cells, Western blot screen / In-Cell Western screen
Assay type: cell-based
Settings: overnight (18-20 hours) treatment; for Dmax: read-out: Dmax (%)** (% degraded)
Procedure: (§1) To assess BRM degradation (Dmax and DC50) cells were seeded at 8000/well in 96-well black/clear-bottom plates in 180 μL DMEM growth media (containing 1% pen-strep, 1% HEPES and 10% FBS) per well. Plates were incubated overnight to allow adhesion. The next morning cells were treated by adding 20 μL of 10× target compound concentration (1% DMSO) to appropriate wells and returned to incubator for overnight (18-20 hours). The final DMSO concentration was 0.1%.
For lysing, adherent cells were washed once with 100 μL of DPBS. Cells were lysed in 40 μL of 1×RIPA+HALT protease inhibitor on ice for 10 minutes and frozen until use at −80° C. Thawed lysates were cleaned by filtration in 1.2 µm filter plates, or alternatively, were spun clean at 2300 g at 4° C. for 30 minutes.
For blotting, for each Western sample 30 μL of lysate was added to 10 μL of 4× LDS sample buffer, then denatured at 95° C. for 5 minutes in the thermal cycler and placed on ice. Samples were loaded on 4-15% Tris/Glycine gels and run for 25 minutes at 250 constant volts in 1× Tris/Glycine buffer with 4 μL of ladder and 12 μL of each sample loaded for each blot. Protein was transferred from gels to NC with BioRad Turbo dry-transfer unit with the Turbo/midi default program. All blots were rinsed with ddH2O and blocked for 1 hour at room temperature in 5% BSA in TBST (0.1%) on rocker. Blots were exposed to primary antibody in 5% BSA in TBST (0.1%) overnight at 4° C. on rocker (1:1000 for BRM (Cell Signaling Tech. cat #11966) and 1:2000 for alpha-tubulin (Cell Signaling Tech. cat #3873), a control protein. Blot was washed with TBST (0.1%) three times for 5 minutes on rocker at room temperature. Secondary antibody was added, and blots were incubated on a room temperature rocker for 1 hour with 1:18,000 anti-rabbit-HRP and/or anti-mouse-HRP in 5% BSA in TBST (0.1%). Blots were washed three times in TBST (0.1%) for 5 minutes at room temperature on the rocker. Signal was developed with Femto Maximum Sensitivity substrate for 4 minutes and blots read on ChemiDoc™.
as §1, with “DC50),” for “DC50)”, “10×” for “10× target”, “compound” for “compound concentration”
For processing, the plates were removed from incubator, the media was removed, and immediately 200 μL of cold (4° C.) DPBS was added to all wells. DPBS was then removed, and 50 μL of 4% paraformaldehyde (PFA) in DPBS (4° C.) was added to all wells, and the plates were incubated at room temperature for 20 minutes. PFA was then removed, and 200 μL of TBS-T containing 0.5% Triton X-100 was added to all wells, and the plates were incubated at room temperature for 30 minutes. TBS-T containing 0.5% Triton X-100 was then removed, and 50 μL of Li-Cor blocking solution was added, and the plates were incubated at room temperature for a minimum of one hour. The blocking solution was removed, and 50 μL of Li-Cor blocking solution containing primary antibody cocktail was added (1:1000 for BRM (Cell Signaling Tech. cat #11966) and 1:2000 for alpha-tubulin (Sigma cat #T6074), a control protein. Plates were then placed in cold room until the next day.
The next day plates were washed three times with TBS-T, 200 μL per well. Fifty […] of secondary antibody cocktail in LI-COR blocking solution (anti-rabbit_800 nm and anti-mouse_680 nm) was added to all wells (diluted 1:5000). The plates were incubated at room temperature for at least one hour while protected from light. The plates were washed twice with TBS-T, 200 μL per well.
To read each plate TBS-T was removed, and each plate was inverted tapped on a paper towel. […]

T1 sequence (P51531 whole entry): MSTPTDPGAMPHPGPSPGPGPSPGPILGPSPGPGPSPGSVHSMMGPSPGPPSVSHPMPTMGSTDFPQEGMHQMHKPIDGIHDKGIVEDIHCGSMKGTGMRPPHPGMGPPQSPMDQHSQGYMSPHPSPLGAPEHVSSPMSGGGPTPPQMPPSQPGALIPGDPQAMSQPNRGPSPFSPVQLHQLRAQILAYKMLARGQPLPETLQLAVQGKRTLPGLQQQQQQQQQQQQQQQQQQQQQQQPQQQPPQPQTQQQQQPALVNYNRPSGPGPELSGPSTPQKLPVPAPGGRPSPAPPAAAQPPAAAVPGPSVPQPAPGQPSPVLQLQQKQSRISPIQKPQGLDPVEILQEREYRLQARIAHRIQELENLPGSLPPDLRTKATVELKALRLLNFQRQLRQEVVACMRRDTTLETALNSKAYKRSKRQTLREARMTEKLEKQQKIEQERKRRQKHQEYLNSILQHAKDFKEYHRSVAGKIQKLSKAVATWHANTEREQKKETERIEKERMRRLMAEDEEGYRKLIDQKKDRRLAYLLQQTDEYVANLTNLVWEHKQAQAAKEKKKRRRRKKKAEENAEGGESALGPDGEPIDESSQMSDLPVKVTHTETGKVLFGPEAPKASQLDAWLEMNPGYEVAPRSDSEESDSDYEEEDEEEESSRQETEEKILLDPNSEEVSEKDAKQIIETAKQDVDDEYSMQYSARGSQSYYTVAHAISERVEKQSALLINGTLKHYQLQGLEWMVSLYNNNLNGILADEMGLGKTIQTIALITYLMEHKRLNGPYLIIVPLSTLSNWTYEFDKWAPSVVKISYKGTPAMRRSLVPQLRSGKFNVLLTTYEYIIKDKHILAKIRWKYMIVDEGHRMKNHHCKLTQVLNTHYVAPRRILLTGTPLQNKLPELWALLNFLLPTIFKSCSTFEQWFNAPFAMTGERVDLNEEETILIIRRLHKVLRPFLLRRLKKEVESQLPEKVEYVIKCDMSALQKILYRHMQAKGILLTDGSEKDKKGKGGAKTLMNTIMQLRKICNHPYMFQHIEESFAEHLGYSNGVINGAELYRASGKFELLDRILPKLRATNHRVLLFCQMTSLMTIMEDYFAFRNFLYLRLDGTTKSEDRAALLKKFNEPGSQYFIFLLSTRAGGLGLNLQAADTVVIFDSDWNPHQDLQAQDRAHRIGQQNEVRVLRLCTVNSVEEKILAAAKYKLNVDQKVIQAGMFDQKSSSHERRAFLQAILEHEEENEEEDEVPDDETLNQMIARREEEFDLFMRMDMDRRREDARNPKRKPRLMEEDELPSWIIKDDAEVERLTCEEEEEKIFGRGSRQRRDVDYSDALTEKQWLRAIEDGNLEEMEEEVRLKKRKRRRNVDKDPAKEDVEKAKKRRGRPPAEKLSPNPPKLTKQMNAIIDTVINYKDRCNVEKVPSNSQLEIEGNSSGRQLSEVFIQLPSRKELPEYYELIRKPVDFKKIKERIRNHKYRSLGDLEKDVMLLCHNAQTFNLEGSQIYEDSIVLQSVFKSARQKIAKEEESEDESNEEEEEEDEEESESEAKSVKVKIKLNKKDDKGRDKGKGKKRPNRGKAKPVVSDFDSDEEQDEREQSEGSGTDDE

## CC(C)[C@@H](C(=O)N1C[C@H](O)C[C@H]1C(=O)N[C@@H](C)c1ccc(-c2ccnn2C)cc1)c1cc(N2CCC(CN3CCC(O[C@H]4C[C@H](N5CCC(C(C)n6ncc(C#Cc7cc(-c8ccccc8O)nnc7N)c6F)CC5)C4)CC3)CC2)no1 (stereo partly drawn) [Compound 84, (2S,4R)-4-hydroxy-N-[(1S)-1-[4-(1-methyl-1H-pyrazol-5-yl)phenyl]ethyl]-1-[(2R)-3-methyl-2-{3-[4-({4-[(1r,3r)-3-{4-[1-(4-{2-[3-amino-6-(2-hydroxyphenyl)pyridazin-4-yl]ethynyl}-5-fluoro-1H-pyrazol-1-yl)ethyl]piperidin-1-yl}cyclobutoxy]piperidin-1-yl}methyl)piperidin-1-yl]-1,2-oxazol-5-yl}butanoyl]pyrrolidine-2-carboxamide]
  DC50: < 2.5 nM
  Dmax: > 75%

## Cc1ncsc1-c1ccc([C@H](C)NC(=O)[C@@H]2C[C@@H](O)CN2C(=O)[C@@H](c2cc(N3CCC(CN4CCCC5(CC(N6CCO[C@H](CN7C8CCC7CN(c7cc(-c9ccccc9O)nnc7N)C8)C6)C5)C4)CC3)no2)C(C)C)cc1 (stereo partly drawn) [Compound 142, (2S,4R)-1-[(2R)-2-{3-[4-({2-[(2S)-2-({3-[3-amino-6-(2-hydroxyphenyl)pyridazin-4-yl]-3,8-diazabicyclo[3.2.1]octan-8-yl}methyl)morpholin-4-yl]-6-azaspiro[3.5]nonan-6-yl}methyl)piperidin-1-yl]-1,2-oxazol-5-yl}-3-methylbutanoyl]-4-hydroxy-N-[(1S)-1-[4-(4-methyl-1,3-thiazol-5-yl)phenyl]ethyl]pyrrolidine-2-carboxamide]
  DC50: < 2.5 nM
  Dmax: > 75%

## Cc1ncsc1-c1ccc([C@H](C)NC(=O)[C@@H]2C[C@@H](O)CN2C(=O)[C@@H](c2cc(N3CCC(CN4CCC5(CC4)CC(Oc4cc(N6C7CCC6CN(c6cc(-c8ccccc8O)nnc6N)C7)ccn4)C5)CC3)no2)C(C)C)cc1 [Compound 29, (2S,4R)-1-[(2R)-2-{3-[4-({2-[(4-{3-[3-amino-6-(2-hydroxyphenyl)pyridazin-4-yl]-3,8-diazabicyclo[3.2.1]octan-8-yl}pyridin-2-yl)oxy]-7-azaspiro[3.5]nonan-7-yl}methyl)piperidin-1-yl]-1,2-oxazol-5-yl}-3-methylbutanoyl]-4-hydroxy-N-[(1S)-1-[4-(4-methyl-1,3-thiazol-5-yl)phenyl]ethyl]pyrrolidine-2-carboxamide]
  DC50: < 2.5 nM
  Dmax: > 75%

## CC(C)[C@H](C(=O)N1C[C@H](O)C[C@H]1C(=O)N[C@@H](C)c1ccc(-c2ccnn2C)cc1)c1cc(N2CCC(OC3CCN(CC4CC(N5CCC([C@H](C)n6cc(C#Cc7cc(-c8ccccc8O)nnc7N)cn6)CC5)C4)CC3)CC2)no1 (stereo partly drawn) [Compound 111, (2S,4R)-1-[(2S)-2-{3-[4-({1-[(3-{4-[(1S)-1-(4-{2-[3-amino-6-(2-hydroxyphenyl)pyridazin-4-yl]ethynyl}-1H-pyrazol-1-yl)ethyl]piperidin-1-yl}cyclobutyl)methyl]piperidin-4-yl}oxy)piperidin-1-yl]-1,2-oxazol-5-yl}-3-methylbutanoyl]-4-hydroxy-N-[(1S)-1-[4-(1-methyl-1H-pyrazol-5-yl)phenyl]ethyl]pyrrolidine-2-carboxamide]
  DC50: ≥ 30 nM

## Cc1ncsc1-c1ccc([C@H](C)NC(=O)[C@@H]2C[C@@H](O)CN2C(=O)[C@@H](c2cc(N3CCC(CN4CCC(O[C@H]5C[C@H](N6CCC([C@@H](C)n7cc(-c8cc(-c9ccccc9O)nnc8N)cn7)CC6)C5)CC4)CC3)no2)C(C)C)cc1 (single isomer, unassigned) [Compound 7]
  DC50: < 2.5 nM
  Dmax: > 75%

## Cc1ncsc1-c1ccc([C@H](C)NC(=O)[C@@H]2C[C@@H](O)CN2C(=O)[C@@H](c2cc(N3CCC(CN4CCC5(CC4)CC(N4CCC(F)(F)C(CN6C7CCC6CN(c6cc(-c8ccccc8O)nnc6N)C7)C4)C5)CC3)no2)C(C)C)cc1 (stereo partly drawn) [Compound 120, (2S,4R)-1-[(2R)-2-{3-[4-({2-[3-({3-[3-amino-6-(2-hydroxyphenyl)pyridazin-4-yl]-3,8-diazabicyclo[3.2.1]octan-8-yl}methyl)-4,4-difluoropiperidin-1-yl]-7-azaspiro[3.5]nonan-7-yl}methyl)piperidin-1-yl]-1,2-oxazol-5-yl}-3-methylbutanoyl]-4-hydroxy-N-[(1S)-1-[4-(4-methyl-1,3-thiazol-5-yl)phenyl]ethyl]pyrrolidine-2-carboxamide]
  DC50: < 2.5 nM
  Dmax: > 75%

## Cc1ncsc1-c1ccc([C@H](C)NC(=O)[C@@H]2C[C@@H](O)CN2C(=O)[C@H](c2cc(N3CCC(OC(=O)N4CCC(O[C@H]5C[C@H](Oc6cc(N7C8CCC7CN(c7cc(-c9ccccc9O)nnc7N)C8)ccn6)C5)CC4)CC3)no2)C(C)C)cc1 [Compound 116, 1-{5-[(2S)-1-[(2S,4R)-4-hydroxy-2-([(1S)-1-[4-(4-methyl-1,3-thiazol-5-yl)phenyl]ethyl]carbamoyl}pyrrolidin-1-yl]-3-methyl-1-oxobutan-2-yl]-1,2-oxazol-3-yl}piperidin-4-yl 4-[(1r,3r)-3-[(4-{3-[3-amino-6-(2-hydroxyphenyl)pyridazin-4-yl]-3,8-diazabicyclo[3.2.1]octan-8-yl}pyridin-2-yl)oxy]cyclobutoxy]piperidine-1-carboxylate]
  DC50: < 2.5 nM
  Dmax: > 75%

## Cc1ncsc1-c1ccc([C@H](C)NC(=O)[C@@H]2C[C@@H](O)CN2C(=O)[C@@H](c2cc(N3CCC(CN4CCC(O[C@H]5C[C@H](N6CCC(C(C)n7cc(/C=C/c8cc(-c9ccccc9O)nnc8N)cn7)CC6)C5)CC4)CC3)no2)C(C)C)cc1 (stereo partly drawn) [Compound 69, (2S,4R)-4-hydroxy-N-[(1S)-1-[4-(4-methyl-1,3-thiazol-5-yl)phenyl]ethyl]-1-[(2R)-3-methyl-2-{3-[4-({4-[(1r,3r)-3-[4-(1-{4-[(1E)-2-[3-amino-6-(2-hydroxyphenyl)pyridazin-4-yl]ethenyl]-1H-pyrazol-1-yl}ethyl)piperidin-1-yl]cyclobutoxy]piperidin-1-yl}methyl)piperidin-1-yl]-1,2-oxazol-5-yl}butanoyl]pyrrolidine-2-carboxamide]
  DC50: < 2.5 nM
  Dmax: > 75%

## CC(C)[C@H](C(=O)N1C[C@H](O)C[C@H]1C(=O)N[C@@H](C)c1ccc(C#N)cc1)c1cc(N2CCC(OCCN3CCC(Oc4cc(N5C6CCC5CN(c5cc(-c7ccccc7O)nnc5N)C6)ccn4)CC3)CC2)no1 [Compound 150, (2S,4R)-1-[(2S)-2-{3-[4-(2-{4-[(4-{3-[3-amino-6-(2-hydroxyphenyl)pyridazin-4-yl]-3,8-diazabicyclo[3.2.1]octan-8-yl}pyridin-2-yl)oxy]piperidin-1-yl}ethoxy)piperidin-1-yl]-1,2-oxazol-5-yl}-3-methylbutanoyl]-N-[(1S)-1-(4-cyanophenyl)ethyl]-4-hydroxypyrrolidine-2-carboxamide]
  DC50: ≥ 30 nM

## CC(C)[C@H](C(=O)N1C[C@H](O)C[C@H]1C(=O)N[C@@H](C)c1ccc(Cl)cc1)c1cc(N2CCC(CN3CCC(O[C@H]4C[C@H](Oc5cc(N6C7CCC6CN(c6cc(-c8ccccc8O)nnc6N)C7)ccn5)C4)CC3)CC2)no1 [Compound 46, (2S,4R)-N-[(1S)-1-(4-chlorophenyl)ethyl]-4-hydroxy-1-[(2S)-3-methyl-2-{3-[4-({4-[(1r,3r)-3-[(4-{3-[3-amino-6-(2-hydroxyphenyl)pyridazin-4-yl]-3,8-diazabicyclo[3.2.1]octan-8-yl}pyridin-2-yl)oxy]cyclobutoxy]piperidin-1-yl}methyl)piperidin-1-yl]-1,2-oxazol-5-yl}butanoyl]pyrrolidine-2-carboxamide]
  DC50: ≥ 30 nM
